Values of other authors as cited in patent US20080248135A1, “Combination Therapy for Otitis with Antiseptic and pH Adjustment” (Collegium Pharmaceutical, Inc., priority 2006, published 2008).

Key:
[1] = system: P. aeruginosa; conditions: background statement
[2] = system: Aspergillus; conditions: antifungal creams; background statement

Compound	Activity against P. aeruginosa [1]	also measured
CC1=C(C(=O)O)N2C(=O)[C@@H](NC(=O)[C@H](N)c3ccccc3)[C@H]2SC1 [cephalexin]	no activity	–
trimethoprim-sulfamethoxazole	no activity	–
II [iodine, elemental iodine (I2)]	–	Saturating concentration of iodine in water: ca. 0.0013 M
Clc1ccccc1C(c1ccccc1)(c1ccccc1)n1ccnc1 [clotrimazole]	–	Effectiveness against Aspergillus [2]: not effective
C[C@@H]1[C@H](O)[C@@H](C)/C=C/C=C/CC/C=C/C=C/C=C/C=C/C(O[C@H]2O[C@H](C)[C@@H](O)[C@H](N)[C@@H]2O)CC2O[C@](O)(CC(O)C(O)CCC(O)CC(O)CC(O)CC(=O)O[C@H]1C)CC(O)C2C(=O)O (stereo partly shown) [nystatin]	–	Effectiveness against Aspergillus [2]: not effective
N[C@@H](C(=O)N[C@@H]1C(=O)N2C(C(=O)O)=C(Cl)CS[C@H]12)c1ccccc1 [cefaclor]	no activity	–
CC1(C)S[C@@H]2[C@H](NC(=O)[C@H](N)c3ccccc3)C(=O)N2[C@H]1C(=O)O [ampicillin]	no activity	–
